Experimental data: ChEMBL document CHEMBL5352401, “Novel cudraisoflavone J derivatives as potent neuroprotective agents for the treatment of Parkinson's disease via the activation of Nrf2/HO-1 signaling” (Eur J Med Chem, 2022)
pIC50: −log10 of the molar value. Blank lines part the entries; values can stand above or below the molecule they belong to. The source made the active and inactive calls. The calls are words filed in the database; no cut-off is given here.

Legend:
PC-12 [1] = assay: Neuroprotective activity in rat PC-12 cells assessed as upregulation of HO-1 expression measured for 6 hrs by immunoblotting analysis; assay type: functional, cell-based; conditions: dose 1-30 µM
[2] = molecular target: T1, Nuclear factor erythroid 2-related factor 2 (Rattus norvegicus) (UniProt O54968); assay: Induction of Nrf2 nuclear translocation in rat PC12 cells assessed as increase in phosphorylation of JNK pretreated with SP600125 for 2 hrs followed by compound addition at 10 uM for 2 to 3 hrs by Western blotting analysis; assay type: cell-based; conditions: PC-12, time 2-3 hrs
T1 sequence (whole entry): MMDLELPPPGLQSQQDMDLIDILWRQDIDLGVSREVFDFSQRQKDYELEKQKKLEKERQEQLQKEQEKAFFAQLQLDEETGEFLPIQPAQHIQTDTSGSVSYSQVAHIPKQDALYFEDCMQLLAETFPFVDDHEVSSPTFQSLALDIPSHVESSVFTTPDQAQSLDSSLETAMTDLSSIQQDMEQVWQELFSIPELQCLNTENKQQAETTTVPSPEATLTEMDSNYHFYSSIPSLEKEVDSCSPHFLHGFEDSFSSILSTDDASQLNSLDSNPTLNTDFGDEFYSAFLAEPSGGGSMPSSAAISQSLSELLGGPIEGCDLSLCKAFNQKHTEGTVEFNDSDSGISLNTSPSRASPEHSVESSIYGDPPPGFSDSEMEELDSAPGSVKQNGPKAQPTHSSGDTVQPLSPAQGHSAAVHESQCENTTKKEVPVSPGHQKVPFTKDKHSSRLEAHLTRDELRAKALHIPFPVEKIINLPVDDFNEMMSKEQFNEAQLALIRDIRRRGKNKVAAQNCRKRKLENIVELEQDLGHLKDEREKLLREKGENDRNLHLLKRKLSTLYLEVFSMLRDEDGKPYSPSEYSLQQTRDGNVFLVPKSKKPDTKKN

PC-12 [3] = assay: Cytotoxicity in rat PC-12 cells assessed as cell viability incubated for 24 hrs by MTT assay; assay type: functional, cell-based; conditions: PC-12, 24 h
[4] = molecular target: T1, Nuclear factor erythroid 2-related factor 2 (Rattus norvegicus); assay: Induction of Nrf2 nuclear translocation in rat PC12 cells assessed as increase in phosphorylation of AKT at 10 uM for 2 to 3 hrs by Western blotting analysis; assay type: cell-based; conditions: PC-12, filed as activator, time 2-3 hrs
PC-12 [5] = assay: Antiinflammatory activity in rotenone induced cytotoxicity in rat PC-12 cells assessed as reduction of ROS production pretreated at 10 to 30 uM for 4 hrs followed by rotenone addition treated for 6 hrs measured after 1 hr of H2-DCFDA addition by measuring fluorescence; assay type: functional, cell-based; conditions: dose 10-30 µM, time 11.0 hrs
PC-12 [6] = assay: Neuroprotective activity against 6-OHDA-induced cytotoxicity in rat PC-12 cells at 10 to 30 uM for 4 hrs followed by exposure to 6-OHDA measured after 24 hrs by MTT assay; assay type: functional, cell-based; conditions: dose 10-30 µM, time 28.0 hrs
[7] = molecular target: T1, Nuclear factor erythroid 2-related factor 2 (Rattus norvegicus); assay: Induction of Nrf2 nuclear translocation in rat PC12 cells assessed as increase in phosphorylation of ERK2 pretreated with U0126 for 2 hrs followed by compound addition at 10 uM for 2 to 3 hrs by Western blotting analysis; assay type: cell-based; conditions: PC-12, time 2-3 hrs
[8] = molecular target: T1, Nuclear factor erythroid 2-related factor 2 (Rattus norvegicus); assay: Induction of Nrf2 nuclear translocation in rat PC12 cells assessed as increase in phosphorylation of ERK1 pretreated with U0126 for 2 hrs followed by compound addition at 10 uM for 2 to 3 hrs by Western blotting analysis; assay type: cell-based; conditions: PC-12, time 2-3 hrs
[9] = Neurotoxicity in rotenone induced at rat PC-12 cells assessed as cell viability at 30 uM pretreated for 4 hrs followed by rotenone addition measured after 24 hrs by MTT assay (reference value: 53.4 +/- 2.6%); assay type: toxicity, cell-based; conditions: time 28 hrs, read-out: Activity
PC-12 [10] = assay: Reversal of upregulation of HO-1 in rat PC-12 cells pretreated with U0126 for 2 hrs followed by compound addition at 10 uM for 2 to 3 hrs by Western blotting analysis; assay type: functional, cell-based; conditions: time 2-3 hrs
PC-12 [11] = assay: Antiinflammatory activity in 6-OHDA-induced cytotoxicity in rat PC-12 cells assessed as reduction of ROS production pretreated at 10 to 30 uM for 4 hrs followed by 6-OHDA addition treated for 6 hrs measured after 1 hr of H2-DCFDA addition by measuring fluorescence; assay type: functional, cell-based; conditions: dose 10-30 µM, time 11.0 hrs
PC-12 [12] = assay: Antiinflammatory activity in 6-OHDA-induced cytotoxicity in rat PC-12 cells assessed as reduction of fluorescence signal pretreated at 10 to 30 uM for 4 hrs followed by 6-OHDA addition treated for 6 hrs measured after 1 hr of H2-DCFDA addition by spectrophotometric analysis; assay type: functional, cell-based; conditions: dose 10-30 µM, time 11.0 hrs
PC-12 [13] = assay: Reversal of upregulation of HO-1 in rat PC-12 cells pretreated with SP600125 for 2 hrs followed by compound addition at 10 uM for 2 to 3 hrs by Western blotting analysis; assay type: functional, cell-based; conditions: time 2-3 hrs
PC-12 [14] = assay: Cytotoxicity in rat PC-12 cells assessed as cell viability measured at 10 to 30 uM for 24 hrs by MTT assay; assay type: functional, cell-based; conditions: dose 10-30 µM
[15] = molecular target: T1, Nuclear factor erythroid 2-related factor 2 (Rattus norvegicus); assay: Induction of Nrf2 nuclear translocation in rat PC12 cells assessed as change in phosphorylation of p38 MAPK level at 10 uM for 2 to 3 hrs by Western blotting analysis; assay type: cell-based; conditions: PC-12, time 2-3 hrs
PC-12 [16] = assay: Upregulation of HO-1 expression in si-RNA mediated Nrf2 knock down rat PC-12 cells measured by immunoblotting analysis; assay type: functional, cell-based
PC-12 [17] = assay: Neuroprotective activity in rat PC-12 cells assessed as upregulation of HO-1 expression measured at 10 uM after 3 to 6 hrs by immunoblotting analysis; assay type: functional, cell-based; conditions: time 3-6 hrs
[18] = molecular target: KEAP1/NRF2 (Rattus norvegicus) (UniProt O54968+P57790); assay: Inhibition of Nrf2-Keap1 protein-protein interaction in rat PC-12 cells by Western blotting analysis; assay type: cell-based
[19] = molecular target: T1, Nuclear factor erythroid 2-related factor 2 (Rattus norvegicus); assay: Induction of Nrf2 nuclear translocation in rat PC12 cells assessed as increase in phosphorylation of ERK1 at 10 uM for 2 to 3 hrs by Western blotting analysis; assay type: cell-based; conditions: PC-12, filed as activator, time 2-3 hrs
PC-12 [20] = assay: Neuroprotective activity against 6-OHDA-induced cytotoxicity in rat PC-12 cells for 4 hrs followed by exposure to 6-OHDA measured after 24 hrs by MTT assay; assay type: functional, cell-based; conditions: dose 0.1-30 µM, time 28.0 hrs
Brain = assay: Antioxidant activity in Fe2+/L-ascorbic acid induced Sprague-Dawley rat brain homogenate assessed as inhibition of lipid peroxide production measured at 100 uM after 60 mins by microplate reader method relative to control; assay type: functional, tissue-based
PC-12 [21] = assay: Neuroprotective activity in rat PC-12 cells assessed as fold increase in upregulation of HO-1 expression measured at 30 uM for 6 hrs by immunoblotting analysis; assay type: functional
[22] = molecular target: T1, Nuclear factor erythroid 2-related factor 2 (Rattus norvegicus); assay: Inhibition of Nrf2 nuclear translocation in rat PC12 cells assessed as increase in phosphorylation of p38 MAPK pretreated with SB203580 for 2 hrs followed by compound addition at 10 uM for 2 to 3 hrs by Western blotting analysis; assay type: cell-based; conditions: PC-12, time 2-3 hrs
[23] = molecular target: T1, Nuclear factor erythroid 2-related factor 2 (Rattus norvegicus); assay: Induction of Nrf2 nuclear translocation in rat PC12 cells assessed as increase in phosphorylation of ERK2 at 10 uM for 2 to 3 hrs by Western blotting analysis; assay type: cell-based; conditions: PC-12, filed as activator, time 2-3 hrs
[24] = molecular target: T1, Nuclear factor erythroid 2-related factor 2 (Rattus norvegicus); assay: Induction of Nrf2 nuclear translocation in rat PC12 cells at 10 uM for 3 hrs by Western blotting analysis; assay type: cell-based; conditions: PC-12, filed as activator
[25] = Neurotoxicity in rotenone induced at rat PC-12 cells assessed as cell viability pretreated with compound for 4 hrs followed by rotenone addition measured after 24 hrs by MTT assay; assay type: toxicity, cell-based
PC-12 [26] = assay: Antiinflammatory activity in rotenone induced cytotoxicity in rat PC-12 cells assessed as reduction of fluorescence signal pretreated at 10 to 30 uM for 4 hrs followed by rotenone addition treated for 6 hrs measured after 1 hr of H2-DCFDA addition by spectrophotometric analysis; assay type: functional, cell-based; conditions: dose 10-30 µM, time 11.0 hrs
[27] = molecular target: T1, Nuclear factor erythroid 2-related factor 2 (Rattus norvegicus); assay: Induction of Nrf2 nuclear translocation in rat PC12 cells assessed as increase in phosphorylation of Akt pretreated with LY294002 for 2 hrs followed by compound addition at 10 uM for 2 to 3 hrs by Western blotting analysis; assay type: cell-based; conditions: PC-12, time 2-3 hrs
PC-12 [28] = assay: Reversal of upregulation of HO-1 in rat PC-12 cells pretreated with LY294002 for 2 hrs followed by compound addition at 10 uM for 2 to 3 hrs by Western blotting analysis; assay type: functional, cell-based; conditions: time 2-3 hrs
[29] = molecular target: T1, Nuclear factor erythroid 2-related factor 2 (Rattus norvegicus); assay: Induction of Nrf2 nuclear translocation in rat PC12 cells assessed as increase in phosphorylation of JNK at 10 uM for 2 to 3 hrs by Western blotting analysis; assay type: cell-based; conditions: PC-12, filed as activator, time 2-3 hrs
PC-12 [30] = assay: Cytotoxicity in 6-OHDA induced rat PC-12 cells assessed as cell viability pretreated with ZnPP for 30 mins followed by compound addition at 10 uM for 4 hrs and measured after 24 hrs of […] addition by MTT assay; assay type: functional, cell-based; conditions: time 28.0 hrs
PC-12 [31] = assay: Neuroprotective activity against 6-OHDA-induced cytotoxicity in rat PC-12 cells at 0.1 uM for 4 hrs followed by exposure to 6-OHDA measured after 24 hrs by MTT assay; assay type: functional, cell-based; conditions: time 28.0 hrs
PC-12 [32] = assay: Cytotoxicity in rat PC-12 cells assessed as cell viability measured upto 30 uM for 24 hrs by MTT assay relative to control; assay type: functional; conditions: up to 30 µM

Activity [2]: inactive
Activity [4]: Active
Activity [7]: inactive
Activity [8]: inactive
Activity [15]: inactive
inhibition [18]: Active
Activity [19]: Active
inhibition [22]: Active
Activity [23]: Active
Activity [24]: Active
Activity [27]: inactive
Activity [29]: Active
SMILES: CC1(C)Oc2c(c(O)cc3occ(-c4ccc(F)cc4F)c(=O)c23)CC1O (stereo not given)
Activity (PC-12 [1]): Dose-Dependent Effect
pIC50 (PC-12 [3]): 5.38
Activity (PC-12 [5]): Active
Activity (PC-12 [6]): Active
viability at 30 µM [9]: ≤ 79.9%
Activity (PC-12 [10]): Active
Activity (PC-12 [11]): Active
Activity (PC-12 [12]): Active
Activity (PC-12 [13]): Active
Activity (PC-12 [14]): Active
Activity (PC-12 [16]): inactive
Activity (PC-12 [17]): Active
Activity (PC-12 [20]): Dose-Dependent Effect
inhibition (Brain): 50.5%
fold change (FC) (PC-12 [21]): 1.5
pIC50 [25]: 5.33
Activity (PC-12 [26]): Active
Activity (PC-12 [28]): Active
Activity (PC-12 [30]): Active

SMILES: CCOc1ccc(-c2coc3cc4c(c(O)c3c2=O)C=CC(C)(C)O4)cc1
Activity (PC-12 [6]): Active
Activity (PC-12 [31]): Active
Activity (PC-12 [14]): inactive
Activity (PC-12 [32]): ~80%
